# Test system: Myo5 SH3 domain
# Test: SPOT analysis of cellulose-bound peptides (WISE), Myo5 SH3 domain (Dataset S4)
# Assay type: binding, Saccharomyces cerevisiae
# Conditions: for The normalized value in BLU units: Myo5 SH3 domain
# [1] = SPOT analysis of membrane-bound peptides, normalized value (see methods)
# [2] = SPOT analysis of cellulose-bound 14-mer yeast proteome peptides, normalized value, mean where the peptide was synthesized more than once
# [3] = SPOT analysis of membrane-synthesized peptides probed with Myo5 SH3 domain, normalized value
# [4] = SPOT analysis of cellulose-bound peptides probed with Myo5 SH3 domain, normalized value
sequence,measurement,setting,value
DIPRRYIPITPADL,The normalized value in BLU units,[1],33.0 BLU
PFIDYEFPHLPNEL,The normalized value in BLU units,[2],98.9 BLU
MLNSKHYPYIPVAN,The normalized value in BLU units,[1],170.8 BLU
LNTMKKRPAPPSLP,"The normalized value in BLU units (SPOT analysis, Myo5 SH3)",[3],22346.5 BLU
LPFMYLLPRFPSHI,"The normalized value in BLU units (SPOT analysis, Myo5 SH3)",[4],454.8 BLU
AKLHRTKPVKPLSK,The normalized value in BLU units,[1],501.8 BLU
YEVTFDGPNDPLHP,The normalized value in BLU units,[2],110.9 BLU
FPKKMGPPQWPFST,The normalized value in BLU units,[2],279.0 BLU
NDNEKKKPSSPTAA,"The normalized value in BLU units (SPOT analysis, Myo5 SH3)",[3],98.5 BLU
NSVIRGCPGLPDTL,"The normalized value in BLU units (SPOT analysis, Myo5 SH3)",[3],150.8 BLU
HFNTKKIPELPSQF,The normalized value in BLU units,[1],466.9 BLU
ITAEKSAPTSPEVY,"The normalized value in BLU units (SPOT analysis, Myo5 SH3)",[3],94.2 BLU
LQQRRYYPIFPGSI,"The normalized value in BLU units (SPOT analysis, Myo5 SH3)",[3],278.7 BLU
PSRSKSNPILPIMR,The normalized value in BLU units,[2],522.7 BLU
KWKSLFPPFFPCDI,"The normalized value in BLU units (SPOT analysis, Myo5 SH3)",[4],241.7 BLU
NQIARQIPYQPWYL,"The normalized value in BLU units (SPOT analysis, Myo5 SH3)",[3],163.5 BLU
AFHELGIPVIPNPS,"The normalized value in BLU units (SPOT analysis, Myo5 SH3)",[4],193.0 BLU
HPSGLNSPKLPPLP,"The normalized value in BLU units (SPOT analysis, Myo5 SH3)",[4],456.8 BLU
DFNKFERPNIPVEE,The normalized value in BLU units,[2],212.3 BLU
YSTNRGIPARPCKD,The normalized value in BLU units,[2],271.3 BLU
KLKIKILPEQPQLE,The normalized value in BLU units,[1],261.3 BLU
KVNFRRIPTGPDSP,The normalized value in BLU units,[1],502.6 BLU
YKNRKNLPTIPIRL,"The normalized value in BLU units (SPOT analysis, Myo5 SH3)",[3],960.6 BLU
GLVLRSTPVIPDMK,The normalized value in BLU units,[2],209.2 BLU
KAALKYHPDKPTGD,"The normalized value in BLU units (SPOT analysis, Myo5 SH3)",[3],155.5 BLU
FSKKKEAPEDPKNL,"The normalized value in BLU units (SPOT analysis, Myo5 SH3)",[3],148.1 BLU
QIVNKPLPPLPVAG,"The normalized value in BLU units (SPOT analysis, Myo5 SH3)",[3],248.9 BLU
IDKSKLSPRFPELK,The normalized value in BLU units,[1],233.0 BLU
FEKRYYVPEDPSQD,The normalized value in BLU units,[2],120.8 BLU
HPHPHPHPHTPTHT,"The normalized value in BLU units (SPOT analysis, Myo5 SH3)",[4],238.0 BLU
MASGLLPPIQPGFD,"The normalized value in BLU units (SPOT analysis, Myo5 SH3)",[4],223.0 BLU
YPNGRTLPPVPTQV,The normalized value in BLU units,[1],172.4 BLU
DDNVRPSPISPSIN,The normalized value in BLU units,[1],153.4 BLU
RAAGMDVPIIPGIM,The normalized value in BLU units,[2],98.2 BLU
EADGLVQPVVPDKV,The normalized value in BLU units,[2],75.1 BLU
DRLSKIKPFLPQSI,"The normalized value in BLU units (SPOT analysis, Myo5 SH3)",[3],225.5 BLU
TKTDKSYPMCPVDA,"The normalized value in BLU units (SPOT analysis, Myo5 SH3)",[3],150.0 BLU
KLPKKFPPPTPLLE,The normalized value in BLU units,[1],19656.3 BLU
DPSDKSLPQQPFHK,The normalized value in BLU units,[1],191.9 BLU
SGSGRRYPQTPSYY,The normalized value in BLU units,[1],435.6 BLU
AFVPKRKPSLPQLA,"The normalized value in BLU units (SPOT analysis, Myo5 SH3)",[3],1744.9 BLU
KLVKFKLPFLPISD,The normalized value in BLU units,[2],974.1 BLU
SFDYLFHPFVPCTI,"The normalized value in BLU units (SPOT analysis, Myo5 SH3)",[4],23.1 BLU
DTYARNNPDFPPQN,The normalized value in BLU units,[2],138.5 BLU
APKKWKAPKGPKPT,The normalized value in BLU units,[2],1010.5 BLU
FASEKGAPFFPNKT,"The normalized value in BLU units (SPOT analysis, Myo5 SH3)",[3],358.8 BLU
LEFSHYAPTAPHVQ,"The normalized value in BLU units (SPOT analysis, Myo5 SH3)",[4],103.0 BLU
VTSVKLHPNLPIVF,The normalized value in BLU units,[2],136.6 BLU
YDLTRFLPNHPGGQ,The normalized value in BLU units,[1],80.6 BLU
REGPKSCPRGPLCP,The normalized value in BLU units,[1],188.5 BLU
APPPKEEPAAPTST,The normalized value in BLU units,[1],116.7 BLU
LPTALLSPLRPSLC,The normalized value in BLU units,[2],115.0 BLU
KEVDLTRPSAPSEP,The normalized value in BLU units,[2],132.2 BLU
GLMSKLGPNLPASI,"The normalized value in BLU units (SPOT analysis, Myo5 SH3)",[3],287.3 BLU
SKNWKLPPRLPHRA,The normalized value in BLU units,[1],5572.0 BLU
DFIKLMNPTLPSLK,The normalized value in BLU units,[2],151.5 BLU
QATGRRGPAPPPPP,"The normalized value in BLU units (SPOT analysis, Myo5 SH3)",[3],607.2 BLU
SFVHLTEPSQPLSD,"The normalized value in BLU units (SPOT analysis, Myo5 SH3)",[4],99.7 BLU
FFYRRDIPDVPITT,The normalized value in BLU units,[2],138.0 BLU
AISKKLGPDTPIKV,"The normalized value in BLU units (SPOT analysis, Myo5 SH3)",[3],176.5 BLU
VAKSYGFPVPPKVN,The normalized value in BLU units,[2],258.9 BLU
RLPSKTDPLDPHIK,The normalized value in BLU units,[1],129.4 BLU
IPYEKRDPTSPAPL,"The normalized value in BLU units (SPOT analysis, Myo5 SH3)",[3],114.1 BLU
EFDLKNIPMMPAGE,"The normalized value in BLU units (SPOT analysis, Myo5 SH3)",[3],106.1 BLU
CNRARYLPQNPDII,The normalized value in BLU units,[1],243.9 BLU
AQKLKLLPEEPFQR,The normalized value in BLU units,[1],400.9 BLU
AGQERFAPLAPMYY,The normalized value in BLU units,[1],100.8 BLU
TLDEKECPSVPPTV,The normalized value in BLU units,[2],211.5 BLU
DARPFLQPVDPVKL,"The normalized value in BLU units (SPOT analysis, Myo5 SH3)",[4],179.1 BLU
KRRSKSLPTTPGIR,The normalized value in BLU units,[1],592.0 BLU
NPFVRINPNRPEAA,"The normalized value in BLU units (SPOT analysis, Myo5 SH3)",[3],275.9 BLU
KFLIHNEPIDPNDR,"The normalized value in BLU units (SPOT analysis, Myo5 SH3)",[4],121.7 BLU
QTVIKTHPRIPKSE,"The normalized value in BLU units (SPOT analysis, Myo5 SH3)",[3],186.2 BLU
ILKNRMNPEKPYEL,"The normalized value in BLU units (SPOT analysis, Myo5 SH3)",[3],321.6 BLU
EEQVKEKPNEPEGK,The normalized value in BLU units,[2],134.2 BLU
TYLTRPLPSTPNED,The normalized value in BLU units,[2],101.0 BLU
KLPQLPPPPPPPPP,"The normalized value in BLU units (SPOT analysis, Myo5 SH3)",[4],54143.7 BLU
VPDSYKPPKNPIVF,The normalized value in BLU units,[2],829.4 BLU
SDNSKSEPLPPVIT,"The normalized value in BLU units (SPOT analysis, Myo5 SH3)",[3],130.5 BLU
CAKSKSRPNTPGSD,The normalized value in BLU units,[1],153.0 BLU
RPVYRLKPNAPFQY,"The normalized value in BLU units (SPOT analysis, Myo5 SH3)",[3],209.8 BLU
HPEYLSLPFEPYCF,The normalized value in BLU units,[2],212.9 BLU
GSLVKTKPTLPLTK,The normalized value in BLU units,[1],421.7 BLU
SRSKRSKPLPPQLL,The normalized value in BLU units,[2],884.3 BLU
HLVVWNPPILPQHE,The normalized value in BLU units,[2],117.9 BLU
YVYGRQDPKKPFFT,"The normalized value in BLU units (SPOT analysis, Myo5 SH3)",[3],345.2 BLU
TVCDRLIPTSPQKT,The normalized value in BLU units,[1],127.7 BLU
KELNLTGPKVPEDI,The normalized value in BLU units,[2],102.4 BLU
NAPERAVPILPPRN,The normalized value in BLU units,[2],740.9 BLU

# From article PMC314469, “Protein Interaction Networks by Proteome Peptide Scanning” (PLoS Biology, 2004)
